Patent US9290476B2, “Methylene linked quinolinyl modulators of RORγt” (Janssen Pharmaceutica NV, priority 2012, dated 2016)
“And” between values parts separate entries of the source, which are not always exact repeats. Equal entries are not always repeated. Structures can show the parent of a compound that is named as a salt. Where two headings read alike, the source gives them in different places.

Experiments:
[1] = molecular target: human RORγt ligand binding domain (RORγt LBD) (Homo sapiens (Human), UniProt P51449); assay: RORγt ThermoFluor assay (thermal shift binding affinity); conditions: estimated from thermal shift
Procedure, shortened: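 Thermal shift used 0.065 mg/mL RORγt LBD with 60 μM 1,8-ANS in 100 mM Hepes pH 7.0, 10 mM NaCl, 2.5 mM GSH and 0.002% Tween-20, heated at 1 °C/min. Fluorescence was excited at 380–400 nm and emission read at 500 nm.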

human RORγt LBD = human RORγt LBD (Homo sapiens (Human), UniProt P51449); assay: RORγt reporter assay (GAL4-RORγt LBD luciferase in HEK293T cells); format: cell-based; conditions: for IC50 / RORγt reporter Assay, % inhibition @ 6 μM: HEK293T cells; for IC50: 24 hours compound treatment; for inhibition at 6 µM: HEK-293T, read-out: RORγt reporter Assay, % inhibition @ 6 μM, HEK293T cells, 6 μM
Procedure, shortened: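 HEK293T cells transiently co-transfected with GAL4-DBD–wild-type human RORγt LBD (pBIND) and GAL4-responsive firefly luciferase reporter (pGL4.31); renilla luciferase from pBIND normalises transfection/viability. Cells in phenol-red-free DMEM, 5% lipid-reduced FCS, treated with compound 24 h. Firefly/renilla ratio plotted against compound concentration.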

[2] = system: IL-17 production by CD4 T cells; assay: Human Th17 assay (IL-17 production by CD4 T cells under Th17 differentiation); format: cell-based; conditions: human CD4+ T cells, IL-17 after 3 days, read-out: Human Th17 Assay, IC50 μM
Procedure, shortened: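 Healthy-donor peripheral CD4+ T cells (1.5×10^5/well) preincubated 1 h with titrated compound (0.2% DMSO), then differentiated with anti-CD3/CD28 beads, anti-IL4, anti-IFNγ, IL1β, IL23, IL6, TGFβ and IL2 for 3 days at 37 °C. Supernatant IL-17 quantified by MSD electrochemiluminescence against a standard curve; IC50 fitted.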

Sequence of human RORγt ligand binding domain (RORγt LBD) (P51449 other isoform, or with tags, fused parts or gaps): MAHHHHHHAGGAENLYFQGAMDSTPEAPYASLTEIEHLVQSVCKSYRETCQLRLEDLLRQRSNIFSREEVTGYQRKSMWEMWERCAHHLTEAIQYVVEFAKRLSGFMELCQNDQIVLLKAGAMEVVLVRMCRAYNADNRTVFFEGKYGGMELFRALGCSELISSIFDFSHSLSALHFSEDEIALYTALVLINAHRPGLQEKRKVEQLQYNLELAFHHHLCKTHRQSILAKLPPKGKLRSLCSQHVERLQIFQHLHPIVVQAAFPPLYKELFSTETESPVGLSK
Sequence of human RORγt LBD (P51449 258-518): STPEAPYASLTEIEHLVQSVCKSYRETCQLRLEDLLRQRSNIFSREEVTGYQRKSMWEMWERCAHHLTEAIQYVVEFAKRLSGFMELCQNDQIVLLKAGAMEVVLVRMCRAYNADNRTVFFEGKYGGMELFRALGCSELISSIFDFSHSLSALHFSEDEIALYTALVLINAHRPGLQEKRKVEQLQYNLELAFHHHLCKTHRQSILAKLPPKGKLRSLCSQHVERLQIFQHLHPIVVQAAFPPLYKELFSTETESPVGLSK

SMILES	Kd [1] [nM]	IC50 (human RORγt LBD)	inhibition at 6 µM (human RORγt LBD) [%]	IC50 ([2]; Homo sapiens, CD4+ T, 72 h) [µM]	IC50 [2] [µM]	RORγt reporter Assay, % inhibition @ 6 μM (human RORγt LBD) [%]
COc1nc2ccc(C(O)(c3ccc(C(F)(F)F)nc3)c3cncn3C)cc2c(Cl)c1Cc1cc2ccccc2s1 (stereo not shown) [Example 37A, (3-(Benzo[b]thiophen-2-ylmethyl)-4-chloro-2-methoxyquinolin-6-yl)(1-methyl-1H-imidazol-5-yl)(6-(trifluoromethyl)pyridin-3-yl)methanol.TFA]	7.8	0.028 µM	100	0.12	–	–
COc1nc2ccc(C(O)(c3ccc(C(F)(F)F)nc3)c3cncn3C)cc2c(C#N)c1Cc1ccc(-n2cccn2)cc1 (single isomer, unassigned) [Example 73B, 3-(4-(1H-Pyrazol-1-yl)benzyl)-6-(hydroxy(1-methyl-1H-imidazol-5-yl)(6-(trifluoromethyl)pyridin-3-yl)methyl)-2-methoxyquinoline-4-carbonitrile]	4.5	0.046 µM	97	–	0.02	–
COc1ccc(C(O)(c2ccc3nc(OC)c(Cc4ccc(-n5cccn5)cc4)c(Cl)c3c2)c2cncs2)cn1 (single isomer, unassigned) [Example 20B, (3-(4-(1H-pyrazol-1-yl)benzyl)-4-chloro-2-methoxyquinolin-6-yl)(6-methoxypyridin-3-yl)(thiazol-5-yl)methanol]	1.4	0.047 µM	100	0.039	–	–
COc1nc2ccc(C(O)(c3ccc(C(F)(F)F)nc3)c3cncn3C)cc2c(Cl)c1Cc1ccc(C(F)(F)F)nc1 (single isomer, unassigned) [Example 94C, (4-Chloro-2-methoxy-3-((6-(trifluoromethyl)pyridin-3-yl)methyl)quinolin-6-yl)(1-methyl-1H-imidazol-5-yl)(6-(trifluoromethyl)pyridin-3-yl)methanol]	6.5	0.16 µM	–	–	0.048	95
COc1nc2ccc(C(O)(c3cnnn3C)c3cnc(C)n3C)cc2c(C#N)c1Cc1ccc(C(F)(F)F)cc1 (single isomer, unassigned) [Example 81B, 6-((1,2-Dimethyl-1H-imidazol-5-yl)(hydroxy)(1-methyl-1H-1,2,3-triazol-5-yl)methyl)-2-methoxy-3-(4-(trifluoromethyl)benzyl)quinoline-4-carbonitrile]	0.05	0.002 µM and ~0.0002 µM	104	0.0022	–	–
CCN(CC)c1nc2ccc(C(O)(c3ccc(Cl)cc3)c3cncn3C)cc2c(Cl)c1Cc1ccc(-n2cccn2)cc1 (single isomer, unassigned) [Example 75C, (3-(4-(1H-Pyrazol-1-yl)benzyl)-4-chloro-2-(diethylamino)quinolin-6-yl)(4-chlorophenyl)(1-methyl-1H-imidazol-5-yl)methanol]	150	0.18 µM	–	0.14	–	90
COc1nc2ccc(C(O)(c3ccc(C(F)(F)F)nc3)c3cncn3C)cc2c(Cl)c1Cc1ccc(C(F)(F)F)nc1 (single isomer, unassigned) [Example 94B, (4-Chloro-2-methoxy-3-((6-(trifluoromethyl)pyridin-3-yl)methyl)quinolin-6-yl)(1-methyl-1H-imidazol-5-yl)(6-(trifluoromethyl)pyridin-3-yl)methanol]	98	0.21 µM	96	–	1.9	–
CON(C)c1nc2ccc(C(O)(c3ccc(C(F)(F)F)nc3)c3cncn3C)cc2c(Cl)c1Cc1ccc(-n2cccn2)cc1 (single isomer, unassigned) [Example 67C, (3-(4-(1H-pyrazol-1-yl)benzyl)-4-chloro-2-(methoxy(methyl)amino)quinolin-6-yl)(1-methyl-1H-imidazol-5-yl)(6-(trifluoromethyl)pyridin-3-yl)methanol]	57	0.12 µM	–	–	0.1	101
COc1nc2c(OC)cc(C(O)(c3ccc(C(F)(F)F)nc3)c3cncn3C)cc2c(Cl)c1Cc1ccc(-n2cccn2)cc1 (single isomer, unassigned) [Example 59B, (3-(4-(1H-pyrazol-1-yl)benzyl)-4-chloro-2,8-dimethoxyquinolin-6-yl)(1-methyl-1H-imidazol-5-yl)(6-(trifluoromethyl)pyridin-3-yl)methanol]	4.4	0.14 µM	106	0.098	–	–
COc1nc2ccc(C(O)(c3cnnn3C)C3CN(C(C)=O)C3)cc2c(Cl)c1Cc1ccc(C(F)(F)F)cc1 (racemic) [Example 97A, 1-(3-((4-Chloro-2-methoxy-3-(4-(trifluoromethyl)benzyl)quinolin-6-yl)(hydroxy)(1-methyl-1H-1,2,3-triazol-5-yl)methyl)azetidin-1-yl)ethanone]	1.4	0.0042 µM	100	0.0014	–	–
COc1nc2c(C)cc(C(O)(c3ccc(C(F)(F)F)nc3)c3cncn3C)cc2c(Cl)c1Cc1ccc(-n2cccn2)cc1 (single isomer, unassigned) [Example 29C, (3-(4-(1H-pyrazol-1-yl)benzyl)-4-chloro-2-methoxy-8-methylquinolin-6-yl)(1-methyl-1H-imidazol-5-yl)(6-(trifluoromethyl)pyridin-3-yl)methanol]	4.9	0.081 µM	–	–	0.09	97
Cn1cncc1C(O)(c1ccc(Cl)cc1)c1ccc2nc(Cl)c(Cc3ccccc3)c(Cl)c2c1 (stereo not shown) [Example 1, (3-Benzyl-2,4-dichloroquinolin-6-yl)(4-chlorophenyl)(1-methyl-1H-imidazol-5-yl)methanol]	18	0.35 µM	72	0.59	–	–
Cn1cncc1C(O)(c1ccc(Cl)cc1)c1ccc2nc(C#N)c(Cc3ccc(-n4cccn4)cc3)c(C#N)c2c1 (single isomer, unassigned) [Example 71C, 3-(4-(1H-Pyrazol-1-yl)benzyl)-6-((4-chlorophenyl)(hydroxy)(1-methyl-1H-imidazol-5-yl)methyl)quinoline-2,4-dicarbonitrile]	130	0.26 µM	–	–	0.3	103
COc1nc2ccc(C(O)(c3ccc(C(F)(F)F)nc3)c3cncn3C)cc2c(Cl)c1Cc1cc2ccccc2s1 (single isomer, unassigned) [Example 37C, (3-(benzo[b]thiophen-2-ylmethyl)-4-chloro-2-methoxyquinolin-6-yl)(1-methyl-1H-imidazol-5-yl)(6-(trifluoromethyl)pyridin-3-yl)methanol]	3.5	0.11 µM	–	–	0.15	102
Cn1cncc1C(O)(c1ccc2nc(Cl)c(Cc3ccc(-n4cccn4)cc3)c(Cl)c2c1)c1cncn1C [Example 30, (3-(4-(1H-Pyrazol-1-yl)benzyl)-2,4-dichloroquinolin-6-yl)bis(1-methyl-1H-imidazol-5-yl)methanol.TFA]	2.2	0.025 µM	98	0.063	–	–
COc1nc2ccc(C(O)(c3sc(C)nc3C)c3cnnn3C)cc2c(Cl)c1Cc1ccc(C(F)(F)F)cc1 (stereo not shown) [Example 79C, (4-Chloro-2-methoxy-3-(4-(trifluoromethyl)benzyl)quinolin-6-yl)(2,4-dimethylthiazol-5-yl)(1-methyl-1H-1,2,3-triazol-5-yl)methanol]	0.024	0.0025 µM	94	0.0015	–	–
OC(c1cccnc1)(c1cccc(Cl)c1)c1ccc2nc(Cl)c(Cc3ccc(-n4cccn4)cc3)c(Cl)c2c1 (stereo not shown) [Example 5, (3-(4-(1H-Pyrazol-1-yl)benzyl)-2,4-dichloroquinolin-6-yl)(3-chlorophenyl)(pyridin-3-yl)methanol.TFA]	11	0.057 µM	117	0.066	–	–
Cn1cncc1C(O)(c1ccc(C(F)(F)F)nc1)c1ccc2nc(N3CCC3)c(Cc3ccc(-n4cccn4)cc3)c(Cl)c2c1 (single isomer, unassigned) [Example 68B, (3-(4-(1H-pyrazol-1-yl)benzyl)-2-(azetidin-1-yl)-4-chloroquinolin-6-yl)(1-methyl-1H-imidazol-5-yl)(6-(trifluoromethyl)pyridin-3-yl)methanol]	2.1	~0.05 µM	96	–	0.01	–
Cc1ccc(C(O)(c2ccc3nc(C#N)c(Cc4ccc(C(F)(F)F)cc4)c(C#N)c3c2)c2cnnn2C)c(C)n1 (single isomer, unassigned) [Example 88C, 6-((2,6-Dimethylpyridin-3-yl)(hydroxy)(1-methyl-1H-1,2,3-triazol-5-yl)methyl)-3-(4-(trifluoromethyl)benzyl)quinoline-2,4-dicarbonitrile]	0.04	0.0088 µM	–	0.0028	–	95
